# Laboratory results reported in PubChem BioAssay AID1918994 (Molecular Pharmacology Branch, DTP, NCI, 2023).
# Test system: 292921-168-R-J2-PDC complex spheroid growth
# Experiment: Anticancer human tumor 292921-168-R-J2-PDC patient-derived pancreatic carcinoma cell line growth inhibition [AhR]
# Settings: for IC50: curve of first compound; for viability, T/C: stronger effect = lower value
# Summary of the method: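 Agents were dosed in half-log steps down from roughly clinical Cmax, or from 10 microM where Cmax was unknown, alone and with AhR antagonists. Read-out: percent test/control growth of tumor spheroids containing HUVEC and MSC stromal cells.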
# [1] = second compound 0.1 µM, first compound 0.0316 µM
# [2] = second compound 0.1 µM, first compound 0.1 µM
# [3] = second compound 0.316 µM, first compound 0.0316 µM
# [4] = second compound 0.316 µM, first compound 0.1 µM
# [5] = second compound 1 µM, first compound 0.0316 µM
# [6] = second compound 1 µM, first compound 0.1 µM
# [7] = second compound 3.16 µM, first compound 0.0316 µM
# [8] = second compound 3.16 µM, first compound 0.1 µM
# [9] = second compound 10 µM, first compound 0.0316 µM
# [10] = second compound 10 µM, first compound 0.1 µM
# 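Note: spheroids exposed to compounds for seven days after three days of growth.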
compound,measurement,setting,value
Cn1ncnc1C1c2n[nH]c(=O)c3cc(F)cc(c23)NC1c1ccc(F)cc1 (stereo not given) + Cc1cncc(-c2nc(NCCc3c[nH]c4ccccc34)c3ncn(C(C)C)c3n2)c1,IC50,second compound 0.1 µM,> 0.1 µM
same,IC50,second compound 0.316 µM,> 0.1 µM
same,IC50,second compound 1 µM,> 0.1 µM
same,IC50,second compound 3.16 µM,> 0.1 µM
same,IC50,second compound 10 µM,0.0351 µM
same,"viability, T/C","second compound 0.1 µM, first compound 0.000316 µM",94.3%
same,"viability, T/C","second compound 0.1 µM, first compound 0.001 µM",96.7%
same,"viability, T/C","second compound 0.1 µM, first compound 0.00316 µM",86.5%
same,"viability, T/C","second compound 0.1 µM, first compound 0.01 µM",95.5%
same,"viability, T/C",[1],83.9%
same,"viability, T/C",[2],82.6%
same,"viability, T/C","second compound 0.316 µM, first compound 0.000316 µM",91.4%
same,"viability, T/C","second compound 0.316 µM, first compound 0.001 µM",102%
same,"viability, T/C","second compound 0.316 µM, first compound 0.00316 µM",83.6%
same,"viability, T/C","second compound 0.316 µM, first compound 0.01 µM",89.2%
same,"viability, T/C",[3],83.7%
same,"viability, T/C",[4],76.7%
same,"viability, T/C","second compound 1 µM, first compound 0.000316 µM",80.8%
same,"viability, T/C","second compound 1 µM, first compound 0.001 µM",87.3%
same,"viability, T/C","second compound 1 µM, first compound 0.00316 µM",85.6%
same,"viability, T/C","second compound 1 µM, first compound 0.01 µM",73.8%
same,"viability, T/C",[5],74.5%
same,"viability, T/C",[6],81.9%
same,"viability, T/C","second compound 3.16 µM, first compound 0.000316 µM",68.7%
same,"viability, T/C","second compound 3.16 µM, first compound 0.001 µM",71.4%
same,"viability, T/C","second compound 3.16 µM, first compound 0.00316 µM",72.3%
same,"viability, T/C","second compound 3.16 µM, first compound 0.01 µM",56.2%
same,"viability, T/C",[7],60.1%
same,"viability, T/C",[8],66.2%
same,"viability, T/C","second compound 10 µM, first compound 0.000316 µM",50.8%
same,"viability, T/C","second compound 10 µM, first compound 0.001 µM",54.4%
same,"viability, T/C","second compound 10 µM, first compound 0.00316 µM",55.5%
same,"viability, T/C","second compound 10 µM, first compound 0.01 µM",52.5%
same,"viability, T/C",[9],47.7%
same,"viability, T/C",[10],48%
CC(C)CC(NC(=O)C(Cc1ccccc1)NC(=O)c1cnccn1)B(O)O (stereo not given) + Cc1ccccc1N=Nc1ccc(NC(=O)c2ccnn2C)c(C)c1,IC50,second compound 0.1 µM,0.0064 µM
same,IC50,second compound 0.316 µM,0.00609 µM
same,IC50,second compound 1 µM,0.00595 µM
same,IC50,second compound 3.16 µM,0.00513 µM
same,IC50,second compound 10 µM,0.00397 µM
same,"viability, T/C","second compound 0.1 µM, first compound 0.000949 µM",91.6%
same,"viability, T/C","second compound 0.1 µM, first compound 0.003 µM",110%
same,"viability, T/C","second compound 0.1 µM, first compound 0.00949 µM",23.4%
same,"viability, T/C","second compound 0.1 µM, first compound 0.03 µM",1.67%
same,"viability, T/C","second compound 0.1 µM, first compound 0.0949 µM",0.43%
same,"viability, T/C","second compound 0.1 µM, first compound 0.3 µM",0.32%
same,"viability, T/C","second compound 0.316 µM, first compound 0.000949 µM",82%
same,"viability, T/C","second compound 0.316 µM, first compound 0.003 µM",102%
same,"viability, T/C","second compound 0.316 µM, first compound 0.00949 µM",23.9%
same,"viability, T/C","second compound 0.316 µM, first compound 0.03 µM",1.24%
same,"viability, T/C","second compound 0.316 µM, first compound 0.0949 µM",3.16%
same,"viability, T/C","second compound 0.316 µM, first compound 0.3 µM",0.68%
same,"viability, T/C","second compound 1 µM, first compound 0.000949 µM",82.3%
same,"viability, T/C","second compound 1 µM, first compound 0.003 µM",94.3%
same,"viability, T/C","second compound 1 µM, first compound 0.00949 µM",23.8%
same,"viability, T/C","second compound 1 µM, first compound 0.03 µM",1.24%
same,"viability, T/C","second compound 1 µM, first compound 0.0949 µM",0.41%
same,"viability, T/C","second compound 1 µM, first compound 0.3 µM",0.93%
same,"viability, T/C","second compound 3.16 µM, first compound 0.000949 µM",77.5%
same,"viability, T/C","second compound 3.16 µM, first compound 0.003 µM",82.8%
same,"viability, T/C","second compound 3.16 µM, first compound 0.00949 µM",15.3%
same,"viability, T/C","second compound 3.16 µM, first compound 0.03 µM",1.68%
same,"viability, T/C","second compound 3.16 µM, first compound 0.0949 µM",2.65%
same,"viability, T/C","second compound 3.16 µM, first compound 0.3 µM",0.81%
same,"viability, T/C","second compound 10 µM, first compound 0.000949 µM",59.9%
same,"viability, T/C","second compound 10 µM, first compound 0.003 µM",62%
same,"viability, T/C","second compound 10 µM, first compound 0.00949 µM",15.7%
same,"viability, T/C","second compound 10 µM, first compound 0.03 µM",1.7%
same,"viability, T/C","second compound 10 µM, first compound 0.0949 µM",1.05%
same,"viability, T/C","second compound 10 µM, first compound 0.3 µM",0.32%
COc1cc(C2c3cc4c(cc3C(OC3OC5COC(C)OC5C(O)C3O)C3COC(=O)C23)OCO4)cc(OC)c1O (stereo not given) + Cc1ccccc1N=Nc1ccc(NC(=O)c2ccnn2C)c(C)c1,IC50,second compound 0.1 µM,0.396 µM
same,IC50,second compound 0.316 µM,0.409 µM
same,IC50,second compound 1 µM,0.355 µM
same,IC50,second compound 3.16 µM,0.181 µM
same,IC50,second compound 10 µM,0.105 µM
same,"viability, T/C",[1],92.5%
same,"viability, T/C",[2],85.8%
same,"viability, T/C","second compound 0.1 µM, first compound 0.316 µM",51.6%
same,"viability, T/C","second compound 0.1 µM, first compound 1 µM",30.8%
same,"viability, T/C","second compound 0.1 µM, first compound 3.16 µM",18%
same,"viability, T/C","second compound 0.1 µM, first compound 10 µM",10.8%
same,"viability, T/C",[3],86.3%
same,"viability, T/C",[4],71%
same,"viability, T/C","second compound 0.316 µM, first compound 0.316 µM",58.7%
same,"viability, T/C","second compound 0.316 µM, first compound 1 µM",29.9%
same,"viability, T/C","second compound 0.316 µM, first compound 3.16 µM",14.8%
same,"viability, T/C","second compound 0.316 µM, first compound 10 µM",11.7%
same,"viability, T/C",[5],75.6%
same,"viability, T/C",[6],72.2%
same,"viability, T/C","second compound 1 µM, first compound 0.316 µM",52.3%
same,"viability, T/C","second compound 1 µM, first compound 1 µM",26.3%
same,"viability, T/C","second compound 1 µM, first compound 3.16 µM",19.2%
same,"viability, T/C","second compound 1 µM, first compound 10 µM",10.9%
same,"viability, T/C",[7],63.4%
same,"viability, T/C",[8],60.8%
same,"viability, T/C","second compound 3.16 µM, first compound 0.316 µM",40.5%
same,"viability, T/C","second compound 3.16 µM, first compound 1 µM",25.5%
same,"viability, T/C","second compound 3.16 µM, first compound 3.16 µM",16.4%
same,"viability, T/C","second compound 3.16 µM, first compound 10 µM",9.21%
same,"viability, T/C",[9],60.8%
same,"viability, T/C",[10],52.7%
same,"viability, T/C","second compound 10 µM, first compound 0.316 µM",27.2%
same,"viability, T/C","second compound 10 µM, first compound 1 µM",23.3%
same,"viability, T/C","second compound 10 µM, first compound 3.16 µM",18.9%
same,"viability, T/C","second compound 10 µM, first compound 10 µM",11.1%
